This passage reports IC50 results from patent US20240165139A1, “GALACTOPYRANOSYL-CYCLOHEXYL DERIVATIVES AS E-SELECTIN ANTAGONISTS” (GLYCOMIMETICS, INC., priority 2017, published 2024).

pIC50: −log10 of the molar value.

E-selectin, sequence (P16581 22-610 limits assumed): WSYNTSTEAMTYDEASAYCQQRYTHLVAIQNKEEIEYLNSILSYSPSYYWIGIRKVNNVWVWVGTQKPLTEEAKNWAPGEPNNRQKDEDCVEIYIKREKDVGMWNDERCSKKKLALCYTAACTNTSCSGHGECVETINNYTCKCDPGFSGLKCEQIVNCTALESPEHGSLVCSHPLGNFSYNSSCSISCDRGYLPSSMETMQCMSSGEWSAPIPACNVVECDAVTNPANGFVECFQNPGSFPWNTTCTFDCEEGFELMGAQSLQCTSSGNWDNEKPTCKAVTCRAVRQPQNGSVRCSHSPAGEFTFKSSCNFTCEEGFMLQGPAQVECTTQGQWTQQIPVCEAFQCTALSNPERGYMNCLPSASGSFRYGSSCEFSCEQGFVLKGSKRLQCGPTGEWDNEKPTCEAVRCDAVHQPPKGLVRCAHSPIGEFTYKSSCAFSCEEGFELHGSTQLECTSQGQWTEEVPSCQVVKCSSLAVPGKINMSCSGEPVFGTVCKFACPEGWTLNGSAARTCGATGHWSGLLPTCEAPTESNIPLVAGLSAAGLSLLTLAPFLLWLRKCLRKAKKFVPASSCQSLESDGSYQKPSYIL

This assay addresses E-selectin (Homo sapiens, UniProt P16581). The experiment in a line: E-Selectin Activity - competitive binding assay (sLe^a polyacrylamide conjugate vs immobilized E-selectin/Ig chimera). To be noted: concentration required to inhibit binding of sLe^a conjugate to immobilized E-selectin/Ig chimera by 50%. How it is done:
The inhibition assay to screen for and characterize glycomimetic antagonists of E-selectin is a competitive binding assay, which allows the determination of IC50 values. E-selectin/Ig chimera was immobilized in 96 well microtiter plates by incubation at 37° C. for 2 hours. To reduce nonspecific binding, bovine serum albumin was added to each well and incubated at room temperature for 2 hours. The plate was washed and serial dilutions of the test compounds were added to the wells in the presence of conjugates of biotinylated, sLe^a polyacrylamide with streptavidin/horseradish peroxidase and incubated for 2 hours at room temperature.
To determine the amount of sLe^a bound to immobilized E-selectin after washing, the peroxidase substrate, 3,3′,5,5′ tetramethylbenzidine (TMB) was added. After 3 minutes, the enzyme reaction was stopped by the addition of H3PO4, and the absorbance of light at a wavelength of 450 nm was determined.
A word on the pIC50: it is the IC50 on a negative log10 scale, so that one unit is a factor of ten. Low readings indicate a large IC50, high ones a small IC50. `CCC1CC(C(=O)NCCNC(=O)c2cn(CC(CO)(COS(=O)(=O)O)COS(=O)(=O)O)nn2)C[C@@H](O[C@@H]2O[C@@H](CO)[C@H](O)C(O[C@@H](CC3CCCCC3)C(=O)N3CCC3)C2NC(C)=O)[C@@H]1O[C@@H]1OC(C)[C@@H](O)[C@H](O)C1O` (stereo partly drawn) [Compound 18] gave a pIC50 of 6.77.
Turning to `CCC1CC(C(=O)NCCNC(=O)c2cn(CCCOS(=O)(=O)O)nn2)C[C@@H](O[C@@H]2O[C@@H](CO)[C@H](O)C(O[C@@H](CC3CCCCC3)C(=O)N3CCC3)C2NC(C)=O)[C@@H]1O[C@@H]1OC(C)[C@@H](O)[C@H](O)C1O` (stereo partly drawn) [Compound 19], the pIC50 is 6.24.
On to `CCC1CC(C(=O)NCCNC(=O)c2cn(CC(CO)(CO)CO)nn2)C[C@@H](O[C@@H]2O[C@@H](CO)[C@H](O)C(O[C@@H](CC3CCCCC3)C(=O)N3CCC3)C2NC(C)=O)[C@@H]1O[C@@H]1OC(C)[C@@H](O)[C@H](O)C1O` (stereo partly drawn) [Compound 20], for which the pIC50 was 6.62. Compared with the last compound, the pIC50 is 0.38 log units higher.
Regarding `CCC1CC(C(=O)NCCNC(=O)c2cn(CCCO)nn2)C[C@@H](O[C@@H]2O[C@@H](CO)[C@H](O)C(O[C@@H](CC3CCCCC3)C(=O)N3CCC3)C2NC(C)=O)[C@@H]1O[C@@H]1OC(C)[C@@H](O)[C@H](O)C1O` (stereo partly drawn) [Compound 21], the pIC50 is 6.28. Compared with the last compound, the pIC50 is 0.34 log units lower.
The result for `CCC1CC(C(=O)NCCNC(=O)[C@@H](OS(=O)(=O)O)[C@@H](COS(=O)(=O)O)OS(=O)(=O)O)C[C@@H](O[C@@H]2O[C@@H](CO)[C@H](O)C(O[C@@H](CC3CCCCC3)C(=O)O)C2NC(C)=O)[C@@H]1O[C@@H]1OC(C)[C@@H](O)[C@H](O)C1O` (stereo partly drawn) [Compound 24] reads 6.72; that for `CCC1CC(C(=O)NCCNC(=O)[C@@H](OS(=O)(=O)O)[C@H](COS(=O)(=O)O)OS(=O)(=O)O)C[C@@H](O[C@@H]2O[C@@H](CO)[C@H](O)C(O[C@@H](CC3CCCCC3)C(=O)O)C2NC(C)=O)[C@@H]1O[C@@H]1OC(C)[C@@H](O)[C@H](O)C1O` (stereo partly drawn) [Compound 25], 6.18; that for `CCC1CC(C(=O)NCCNC(=O)CC(C)S(=O)(=O)O)C[C@@H](O[C@@H]2O[C@@H](CO)[C@H](O)C(O[C@@H](CC3CCCCC3)C(=O)O)C2NC(C)=O)[C@@H]1O[C@@H]1OC(C)[C@@H](O)[C@H](O)C1O` (stereo partly drawn) [Compound 30], 5.56.
Next, `CCC1CC(C(=O)NCCNC(=O)CC(CS(=O)(=O)O)S(=O)(=O)O)C[C@@H](O[C@@H]2O[C@@H](CO)[C@H](O)C(O[C@@H](CC3CCCCC3)C(=O)O)C2NC(C)=O)[C@@H]1O[C@@H]1OC(C)[C@@H](O)[C@H](O)C1O` (stereo partly drawn) [Compound 31]: 5.63; `CCC1CC(C(=O)NCCNC(=O)CCCS(=O)(=O)O)C[C@@H](O[C@@H]2O[C@@H](CO)[C@H](O)C(O[C@@H](CC3CCCCC3)C(=O)O)C2NC(C)=O)[C@@H]1O[C@@H]1OC(C)[C@@H](O)[C@H](O)C1O` (stereo partly drawn) [Compound 33]: 5.67; `CCC1CC(C(=O)NCCNC(=O)CCC(=O)O)C[C@@H](O[C@@H]2O[C@@H](CO)[C@H](O)C(O[C@@H](CC3CCCCC3)C(=O)O)C2NC(C)=O)[C@@H]1O[C@@H]1OC(C)[C@@H](O)[C@H](O)C1O` (stereo partly drawn) [Compound 35]: 6.14.
The compound `CCC1CC(C(=O)NCCNC(=O)CCCC(=O)O)C[C@@H](O[C@@H]2O[C@@H](CO)[C@H](O)C(O[C@@H](CC3CCCCC3)C(=O)O)C2NC(C)=O)[C@@H]1O[C@@H]1OC(C)[C@@H](O)[C@H](O)C1O` (stereo partly drawn) [Compound 36] showed a pIC50 of 6.29.
`CCC1CC(C(=O)NCCNC(=O)CCOCCOCCNC(=O)c2cn(C(COS(=O)(=O)O)(COS(=O)(=O)O)COS(=O)(=O)O)nn2)C[C@@H](O[C@@H]2O[C@@H](CO)[C@H](O)C(O[C@@H](CC3CCCCC3)C(=O)O)C2NC(C)=O)[C@@H]1O[C@@H]1OC(C)[C@@H](O)[C@H](O)C1O` (stereo partly drawn) [Compound 46] showed a pIC50 of 6.72. This pIC50 lies 0.43 log units higher than the previous one.
